Columns and labels:
[1] = system: murine B16F10 melanoma cell line; test: B16F10 IFNγ-induced cellular growth inhibition assay (xCELLigence RTCA); type: cell-based; settings: Mus musculus, B16-F10, 48 h, B16F10 cells, 1 ng/mL mouse IFNγ, AUC of growth curve, read-out: B16 IFNγ Mediated Growth Inhibition Assay: AVG IC50
Experimental: Compound activity was determined using an interferon gamma (IFNγ)-induced cellular growth inhibition assay with the murine B16F10 melanoma cell line on an Agilent xCELLigence Real-Time Cell Analysis platform (RTCA). RTCA E-Plate View 96 plates (Agilent, 300601010) were pre-equilibrated with 50 μL of assay media (DMEM+10% FBS, Gibco 10566-024, Gibco 10082-147) at 37° C. in a humidified incubator before taking an initial measurement of impedance (sweep). B16F10 cells cultured in assay media were dissociated with TrypLE Express (Gibco 12605-010) for five minutes at 37° C., diluted in 3 volumes of assay buffer, centrifuged for 5 minutes at 500×g at room temperature before diluting cells to 7,700 cells/mL in assay media, plating 130 μL/well (1,000 cells/well) in the inner 60 wells of the assay plate, and adding 150 μL of assay media to the outer wells of the plate. Cells were incubated at room temperature for 20 min to allow cells to settle before placing them in the xCELLigence reader and incubating overnight at 37° C., sweeping wells every 15 minutes. After 24 hours, well readings were paused, plates were removed from the incubator and compounds were added using a Tecan D300e dispenser. All wells were normalized to a final concentration of 0.5% DMSO. Following a 30 min incubation at 37° C., recombinant mouse IFNγ (R&D Systems™ 485MI100) was diluted to 10 ng/mL in assay media and 20 μL was added to assay wells (1 ng/mL final concentration). Assay plates were placed in the xCELLigence reader and swept every 15 minutes.

[2] = molecular target: full-length human PTPN2 (TC45) (1-387) (Homo sapiens (Human), UniProt P17706); test: Enzymatic assay used to determine potency of PTPN2 inhibitors (full length PTPN2 DiFMUP assay); type: biochemical; settings: 0.5 nM PTPN2, 100 μM DiFMUP, 30 min at room temperature
Experimental: Compound activity was determined in an in vitro enzymatic assay using untagged, full-length human PTPN2 (TC45) (1-387) protein. PTPN2 was produced in E. coli as a GST-TEV fusion and the GST was removed by TEV digestion, followed by additional purification to yield full-length PTPN2 (SEQ ID 1). PTPN2 enzyme was diluted in assay buffer (50 mM HEPES pH7.5, 0.2 mM EDTA, 1 mM DTT, 0.02% Brij-35, 0.02% BSA) to a final concentration of 0.5 nM and added to black 384-well non-binding plates (Greiner, 781900). Compounds were subsequently added using a Tecan D300e dispenser. Following a 10 min incubation at room temperature, DiFMUP substrate (ThermoFisher, D22065) was added to a final concentration of 100 μM. Plates were transferred to a SpectraMax plate reader (Molecular Devices) and fluorescence intensity was measured (ex 358, em 455) after a 30 min incubation at room temperature. […] A four-parameter curve fit was used to determine IC50 values from % inhibition data.

Sequence of full-length human PTPN2 (TC45) (1-387) (P17706 other isoform, or with tags, fused parts or gaps): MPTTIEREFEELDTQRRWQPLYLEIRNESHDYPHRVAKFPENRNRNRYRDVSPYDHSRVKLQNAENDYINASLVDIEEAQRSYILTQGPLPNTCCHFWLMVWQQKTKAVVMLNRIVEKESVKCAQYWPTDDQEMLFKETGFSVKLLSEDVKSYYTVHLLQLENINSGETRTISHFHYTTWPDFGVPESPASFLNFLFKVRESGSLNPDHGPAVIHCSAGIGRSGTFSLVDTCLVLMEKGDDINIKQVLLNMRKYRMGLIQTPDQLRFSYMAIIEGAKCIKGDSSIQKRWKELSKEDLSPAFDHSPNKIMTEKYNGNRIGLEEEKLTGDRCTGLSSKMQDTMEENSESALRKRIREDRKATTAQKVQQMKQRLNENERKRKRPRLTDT

SMILES | IC50 [1] [nM] | IC50 [2] [nM]
O=C1CN(c2c(O)cc(CC3CCCN(CC4CCC4)C3)cc2F)S(=O)(=O)N1 (centres unmarked) [Example 32] | 14800 | 35
CCCCCN1CCCC(Cc2cc(O)c(N3CC(=O)NS3(=O)=O)c(F)c2)C1 (centres unmarked) [Example 33] | 28800 | 35
O=C1CN(c2c(O)cc(CC3CCCN(CC4CCCC4)C3)cc2F)S(=O)(=O)N1 (centres unmarked) [Example 34] | 9960 | 43
CCCCN1CCCC(Cc2cc(O)c(N3CC(=O)NS3(=O)=O)c(F)c2)C1 (centres unmarked) [Example 38] | > 100000 | 154
O=C1CN(c2c(O)cc(CC3CCCN(CC4CCCO4)C3)cc2F)S(=O)(=O)N1 (centres unmarked) [Example 43] | 95900 | 63
O=C1CN(c2c(O)cc(CC3CCCN(CC4CCNCC4)C3)cc2F)S(=O)(=O)N1 (centres unmarked) [Example 44] | 38000 | 4
O=C1CN(c2c(O)cc(CC3CCCN(Cc4ccoc4)C3)cc2F)S(=O)(=O)N1 (centres unmarked) [Example 45] | 55400 | 30
O=C1CN(c2c(O)cc(CC3CCCN(Cc4cnco4)C3)cc2F)S(=O)(=O)N1 (centres unmarked) [Example 48] | > 33000 | 223
O=C1CN(c2c(O)cc(CC3CCCNC3)cc2F)S(=O)(=O)N1 (centres unmarked) [Example 54] | 25800 | 75
CN1CCCCC(Cc2cc(O)c(N3CC(=O)NS3(=O)=O)c(F)c2)C1 (centres unmarked) [Example 56, 5-(2-fluoro-6-hydroxy-4-((1-methylazepan-3-yl)methyl)phenyl)-1,2,5-thiadiazolidin-3-one 1,1-dioxide] | > 45000 | 28
CN1CCCC(Cc2cc(O)c(N3CC(=O)NS3(=O)=O)c(F)c2)CC1 (centres unmarked) [Example 60] | > 73000 | 24
CN1CCC(CCc2cc(O)c(N3CC(=O)NS3(=O)=O)c(F)c2)C1 (centres unmarked) [Example 61, 5-(2-fluoro-6-hydroxy-4-(2-(1-methylpyrrolidin-3-yl)ethyl)phenyl)-1,2,5-thiadiazolidin-3-one 1,1-dioxide] | > 41000 | 19
O=C1CN(c2c(O)cc(CCC3CCCN3)cc2F)S(=O)(=O)N1 (centres unmarked) [Example 66] | 4270 | 16
O=C1CN(c2c(O)cc(CC3CNC3)cc2F)S(=O)(=O)N1 [Example 69, 5-(4-(azetidin-3-ylmethyl)-2-fluoro-6-hydroxyphenyl)-1,2,5-thiadiazolidin-3-one 1,1-dioxide] | 13600 | 15
CCCC1CCCN1Cc1cc(O)c(N2CC(=O)NS2(=O)=O)c(F)c1 (centres unmarked) [Example 70, 5-(2-fluoro-6-hydroxy-4-((2-propylpyrrolidin-1-yl)methyl)phenyl)-1,2,5-thiadiazolidin-3-one 1,1-dioxide] | > 45000 | 204
CCCC1CCN(Cc2cc(O)c(N3CC(=O)NS3(=O)=O)c(F)c2)C1 (centres unmarked) [Example 71] | 19300 | 65
CC(C)CC1CCN(Cc2cc(O)c(N3CC(=O)NS3(=O)=O)c(F)c2)C1 (centres unmarked) [Example 72] | 8440 | 66
CN1CCCCC1Cc1ccc(O)c(N2CC(=O)NS2(=O)=O)c1F (centres unmarked) [Example 74, 5-(2-fluoro-6-hydroxy-3-((1-methylpiperidin-2-yl)methyl)phenyl)-1,2,5-thiadiazolidin-3-one 1,1-dioxide] | 9290 | 161
CC(C)CCN1CCCCC1Cc1ccc(O)c(N2CC(=O)NS2(=O)=O)c1F (centres unmarked) [Example 76] | 8920 | 6
O=C1CN(c2c(O)ccc(CC3CCCCN3CCc3ccccc3)c2F)S(=O)(=O)N1 (centres unmarked) [Example 78] | 11000 | 13
O=C1CN(c2c(O)cc(CCN3CCCC3)cc2F)S(=O)(=O)N1 [Example 83, 5-(2-fluoro-6-hydroxy-4-(2-(pyrrolidin-1-yl)ethyl)phenyl)-1,2,5-thiadiazolidin-3-one 1,1-dioxide] | 674 | 3

Now from value to compound, other results behind:

IC50 [1] [nM] | SMILES | IC50 [2] [nM]
29700 | CN1CCCC(Cc2cc(O)c(N3CC(=O)NS3(=O)=O)c(F)c2)C1 (centres unmarked) [Example 31, 5-(2-fluoro-6-hydroxy-4-((1-methylpiperidin-3-yl)methyl)phenyl)-1,2,5-thiadiazolidin-3-one 1,1-dioxide] | 47
13000 | CC(C)(C)CCN1CCCC(Cc2cc(O)c(N3CC(=O)NS3(=O)=O)c(F)c2)C1 (centres unmarked) [Example 35] | 31
81000 | CCCCCCN1CCCC(Cc2cc(O)c(N3CC(=O)NS3(=O)=O)c(F)c2)C1 (centres unmarked) [Example 36] | 22
46400 | O=C1CN(c2c(O)cc(CC3CCCN(CC4CC4)C3)cc2F)S(=O)(=O)N1 (centres unmarked) [Example 37] | 66
> 100000 | O=C1CN(c2c(O)cc(CC3CCCN(Cc4cc[nH]c4)C3)cc2F)S(=O)(=O)N1 (centres unmarked) [Example 39] | 63
38600 | O=C1CN(c2c(O)cc(CC3CCCN(CCC4CCOCC4)C3)cc2F)S(=O)(=O)N1 (centres unmarked) [Example 40] | 46
> 100000 | CC(C)CCN1CCCC(Cc2cc(O)c(N3CC(=O)NS3(=O)=O)c(F)c2)C1 (centres unmarked) [Example 41] | 47
> 100000 | O=C1CN(c2c(O)cc(CC3CCCN(Cc4cn[nH]c4)C3)cc2F)S(=O)(=O)N1 (centres unmarked) [Example 42] | 12
> 100000 | O=C1CN(c2c(O)cc(CC3CCCN(Cc4ccco4)C3)cc2F)S(=O)(=O)N1 (centres unmarked) [Example 46] | 75
> 38000 | CCCN1CCCC(Cc2cc(O)c(N3CC(=O)NS3(=O)=O)c(F)c2)C1 (centres unmarked) [Example 49] | 96
> 100000 | CC(C)CN1CCCC(Cc2cc(O)c(N3CC(=O)NS3(=O)=O)c(F)c2)C1 (centres unmarked) [Example 50] | 91
27600 | CCN1CCCC(Cc2cc(O)c(N3CC(=O)NS3(=O)=O)c(F)c2)C1 (centres unmarked) [Example 51] | 63
> 73000 | O=C1CN(c2c(O)cc(CC3CCCN(Cc4ncc[nH]4)C3)cc2F)S(=O)(=O)N1 (centres unmarked) [Example 52] | 44
> 100000 | O=C1CN(c2c(O)cc(CC3CCCN(Cc4ccn[nH]4)C3)cc2F)S(=O)(=O)N1 (centres unmarked) [Example 53] | 35
> 100000 | O=C1CN(c2c(O)cc(CCC3CCNC3)cc2F)S(=O)(=O)N1 (centres unmarked) [Example 62] | 16
> 100000 | CC(C)CN1CCC(CCc2cc(O)c(N3CC(=O)NS3(=O)=O)c(F)c2)C1 (centres unmarked) [Example 63] | 75
> 100000 | CC(C)CCN1CCC(CCc2cc(O)c(N3CC(=O)NS3(=O)=O)c(F)c2)C1 (centres unmarked) [Example 64] | 89
> 100000 | CC(C)CCN1CCCC1CCc1cc(O)c(N2CC(=O)NS2(=O)=O)c(F)c1 (centres unmarked) [Example 67] | 36
> 100000 | CC(C)CN1CCCC1CCc1cc(O)c(N2CC(=O)NS2(=O)=O)c(F)c1 (centres unmarked) [Example 68] | 46
8620 | O=C1CN(c2c(O)cc(CN3CCCC3)cc2F)S(=O)(=O)N1 [Example 73] | 92
> 100000 | O=C1CN(c2c(O)ccc(CC3CCCCN3CCC(F)(F)F)c2F)S(=O)(=O)N1 (centres unmarked) [Example 77] | 4
13700 | CCC1CCCN1CCc1cc(O)c(N2CC(=O)NS2(=O)=O)c(F)c1 (centres unmarked) [Example 84, 5-(4-(2-(2-ethylpyrrolidin-1-yl)ethyl)-2-fluoro-6-hydroxyphenyl)-1,2,5-thiadiazolidin-3-one 1,1-dioxide] | 13

Source: patent US20250257059A1, “PROTEIN TYROSINE PHOSPHATASE INHIBITORS AND USES THEREOF” (Nerio Therapeutics, Inc., priority 2022, published 2025)
